Where a name gives a salt, the structure may show the parent alone. Read-outs that look alike come from different tables or passages of the source.

In one data set the test system is Plasmodium yoelii. The data set can be described thus: In vivo activity against Plasmodium yoelii in mice (modified 4-day suppressive test). The procedure: Compounds A and B were administered orally and intravenously, and compound (I) was administered orally only, in the manner described below.
The test method is a modified version of the 4-day suppressive test. The YM strain of P.yoelii was maintained in mice by twice weekly passage. Infected blood was collected and diluted with normal saline to give an inoculum of 3x10⁶ parasitized enythrocytes/ml. On the morning of Day 1 the test animals (male CD-1 mice weighing 18-20g) were infected intravenously via the tail vein with 0.1ml of inoculum/mouse.
Test compounds A, B and (I) were formulated by ball milling in 0.25% celacol with stainless steel balls. The total requirement was formulated at the beginning of a test and thereafter stored at 4°C.
Each test compound was administered orally (p.o.) to four or more usually five groups of mice, each group receiving a different dose level (dilution). A further group of mice was administered celacol only, as a control (ie. a total of 30 mice are used to obtain each ED₅₀). The mice were dosed orally in the late afternoon of Day 1 and in the early morning and late afternoon of days 2, 3 and 4, giving a total of seven doses in four days or 24 hours post-infection i.e. on day 2 when given as a single dose.
I.v. formulations of test Compounds A and B were prepared by dissolving the compound in water immediately before use, and administered via the tail vein as a single dose 24 hours post-infection, i.e. on day 2.
On the morning of day 5 smears of tail blood were prepared from each mouse and the parasitaemia counted. Data were analysed to yield ED₅₀ values by the best fit to a sigmoidal dose response curve.

A short description of another data set: Solubility in water. Type of data set: physicochemical. The following applies: statement in words.
Setting [1] is: Plasmodium yoelii, po, dosing schedule 1 x p.o. (single dose 24 hours post-infection), YM strain of P.yoelii, male CD-1 mice, parasitaemia on day 5, read-out: ED50.

For orientation: ED50 means the dose that gives a 50% effect, or the effect in half of the subjects. For “3-[trans-4-(4-Chlorophenyl)cyclohexyl]-1,4-dioxo-2-naphthylphosphate bis diethanolamine salt [Compound (A)]”, the “Weight adjusted ED50” value in the data set on Plasmodium yoelii (7 x p.o., calculated in terms of the amount of compound (I) administered) was 0.056 mg/kg. The same compound had an ED50 with Plasmodium yoelii (dosing schedule 7 x p.o. (seven doses in four days), YM strain of P.yoelii, male CD-1 mice, parasitaemia on day 5) of 0.1 mg/kg.

Turning to `O=C1C(OP(=O)(O)O)=C([C@H]2CC[C@H](c3ccc(Cl)cc3)CC2)C(=O)c2ccccc21` [Compound (B), 3-[trans--4-(4-Chlorophenyl)cyclohexyl]-1,4-dioxo-2-naphthylphosphate N-methylglucosamine salt], the median effective dose (ED50) in the data set with Plasmodium yoelii (Plasmodium yoelii, iv, 1 x i.v., calculated in terms of the amount of compound (I) administered, read-out: Weight adjusted ED50) was 0.12 mg/kg; in the data set on Plasmodium yoelii (Plasmodium yoelii, iv, dosing schedule 1 x i.v. (single dose 24 hours post-infection, dissolved in water), YM strain of P.yoelii, male CD-1 mice, parasitaemia on day 5, read-out: ED50), 0.27 mg/kg; in the data set on Plasmodium yoelii (Plasmodium yoelii, po, 1 x p.o., calculated in terms of the amount of compound (I) administered, read-out: Weight adjusted ED50) it was 0.1 mg/kg; in the data set with Plasmodium yoelii (setting [1]) it was 0.23 mg/kg. Further, the solubility in water result in the data set “Solubility in water” is “readily soluble in cold water”.

Regarding `O=C1C(O)=C([C@H]2CC[C@H](c3ccc(Cl)cc3)CC2)C(=O)c2ccccc21` [Compound (I), 2-[trans-4-(4-Chlorophenyl)cyclohexyl]-3-hydroxy-1,4-naphthoquinone, reference compound], the ED50 in the data set on Plasmodium yoelii (setting [1]) is 0.09 mg/kg; with Plasmodium yoelii (Plasmodium yoelii, po, dosing schedule 7 x p.o. (seven doses in four days), YM strain of P.yoelii, male CD-1 mice, parasitaemia on day 5, read-out: ED50) it was 0.03 mg/kg.

The record behind these values is EP0537947A1, “Naphthoquinone derivatives for the treatment of parasitic infections” (THE WELLCOME FOUNDATION LIMITED, priority 1991, dated 1993).
